{
  "source": "patent US9957214B2",
  "about": "“Multifunctional radical quenchers” (ARIZONA BOARD OF REGENTS ON BEHALF OF ARIZONA STATE …, priority 2012, dated 2018)",
  "tested_on": "Hsp90",
  "test": "Hsp90 client protein immunodetection assay (Her2 degradation, Hsp70 induction) in BT474 cells",
  "type": "cell-based, human",
  "details": "24 h",
  "description": "FIG. 9. A cell-based immunodetection assay was used to monitor Hsp90 client protein, Her2 protein degradation (A), and the induction of a heat shock response Hsp70 protein levels (B) in Her2-overexpressing BT474 cell line. The effects of 40 and geldanamycin were compared to vehicle (DMSO) after treatment with varying concentrations of the compounds for 24 h. Each measurement is an average of three independent experiments run in […].\nThe classic method of following the cellular activity of Hsp90 inhibitors is through the proteasome-dependent degradation of Hsp90 client proteins. […] Another hallmark of Hsp90 inhibition is the induction of a heat shock response, which was evaluated by determining the Hsp70 protein levels by […]. […] The plates were read immediately on a luminometer (Clarity™ luminescence microplate reader). Readings from wells containing only control IgG and the corresponding horseradish peroxidase-linked secondary antibody were set as background and subtracted from all measured values. The average chemiluminescence signals obtained were expressed as a percentage of Her2 reduction or Hsp70 induction in comparison to vehicle (DMSO). Values were calculated from three independent experiments performed in triplicate.",
  "data": [
    {"smiles": "COC1=C2CCCCCCCCCCCCCCCNC(=CC1=O)C2=O", "note": "[Compound 40]", "values": [
      {"measurement": "Hsp90 inhibition judged by client proteins Her2 and Hsp70 (in words)", "value": "did not inhibit Hsp90"}
    ]}
  ]
}
